Measurements as given in PMC5428509, “Irreversible inhibition of BTK kinase by a novel highly selective inhibitor CHMFL-BTK-11 suppresses inflammatory response in rheumatoid arthritis model” (Scientific Reports, 2017).

What was measured:
PKNB(M.tuberculosis) = PKNB(M.tuberculosis) (Mycobacterium tuberculosis, UniProt P9WI81); experiment: biochemical; parameters: KinomeScan competition binding panel (DiscoveRx), percent of control at 1 uM; settings: read-out: Percent Control
[1] = biological target: T1, BTK kinase (Bruton's tyrosine kinase) (Homo sapiens, UniProt Q06187); experiment: ADP-Glo biochemical kinase assay; supported by Y551 autophosphorylation of wt vs C481S BTK and KinomeScan binding
T1 construct: purified BTK kinase

KIT(V559D,V654A) = KIT(V559D,V654A) (Homo sapiens, UniProt P10721, V559D/V654A); experiment: biochemical; parameters: KinomeScan competition binding panel (DiscoveRx), percent of control at 1 uM; settings: read-out: Percent Control
Text: (§1) In order to further confirm the binding mode, we then tested the compounds in the BTK wild-type (wt) and BTK C481S mutant with immunoblotting by looking at the BTK Y551 auto-phosphorylation. […] In addition, a covalent bond was preferred to form between the […] acrylamide and Cys-481 near the hinge binding area, which further confirmed its irreversible binding mode (Fig. 1d). We next investigated CHMFL-BTK-11′s selectivity profile in 456 kinases/mutants with KinomeScan^TM technology.

PKN1 = PKN1 (Homo sapiens, UniProt Q16512); experiment: biochemical; parameters: KinomeScan competition binding panel (DiscoveRx), percent of control at 1 uM; settings: read-out: Percent Control
Text: as §1

PIK3CB = PIK3CB (Homo sapiens, UniProt P42338); experiment: biochemical; parameters: KinomeScan competition binding panel (DiscoveRx), percent of control at 1 uM; settings: read-out: Percent Control
Text: as §1

FLT3(D835Y) = FLT3(D835Y) (Homo sapiens, UniProt P36888, D835Y); experiment: biochemical; parameters: KinomeScan competition binding panel (DiscoveRx), percent of control at 1 uM; settings: read-out: Percent Control
Text: as §1

PKN2 = PKN2 (Homo sapiens, UniProt Q16513); experiment: biochemical; parameters: KinomeScan competition binding panel (DiscoveRx), percent of control at 1 uM; settings: read-out: Percent Control
Text: as §1

AKT1 = AKT1 (Homo sapiens, UniProt P31749); experiment: biochemical; parameters: KinomeScan competition binding panel (DiscoveRx), percent of control at 1 uM; settings: read-out: Percent Control
Text: as §1

PIK3CA(C420R) = PIK3CA(C420R) (Homo sapiens, UniProt P42336, C420R); experiment: biochemical; parameters: KinomeScan competition binding panel (DiscoveRx), percent of control at 1 uM; settings: read-out: Percent Control
Text: as §1

DRAK2 = biological target: T2, DRAK2 (Homo sapiens, UniProt O94768); experiment: biochemical; parameters: KinomeScan competition binding panel (DiscoveRx), percent of control at 1 uM; settings: read-out: Percent Control
T2 construct: gene STK17B
Text: as §1

MARK1 = MARK1 (Homo sapiens, UniProt Q9P0L2); experiment: biochemical; parameters: KinomeScan competition binding panel (DiscoveRx), percent of control at 1 uM; settings: read-out: Percent Control
Text: as §1

NEK9 = NEK9 (Homo sapiens, UniProt Q8TD19); experiment: biochemical; parameters: KinomeScan competition binding panel (DiscoveRx), percent of control at 1 uM; settings: read-out: Percent Control
Text: as §1

PHKG2 = PHKG2 (Homo sapiens, UniProt P15735); experiment: biochemical; parameters: KinomeScan competition binding panel (DiscoveRx), percent of control at 1 uM; settings: read-out: Percent Control
Text: as §1

ERK4 = biological target: T3, ERK4 (Homo sapiens, UniProt P31152); experiment: biochemical; parameters: KinomeScan competition binding panel (DiscoveRx), percent of control at 1 uM; settings: read-out: Percent Control
T3 construct: gene MAPK4
Text: as §1

RIOK1 = RIOK1 (Homo sapiens, UniProt Q9BRS2); experiment: biochemical; parameters: KinomeScan competition binding panel (DiscoveRx), percent of control at 1 uM; settings: read-out: Percent Control
Text: as §1

MAP3K2 = MAP3K2 (Homo sapiens, UniProt Q9Y2U5); experiment: biochemical; parameters: KinomeScan competition binding panel (DiscoveRx), percent of control at 1 uM; settings: read-out: Percent Control
Text: as §1

LATS2 = LATS2 (Homo sapiens, UniProt Q9NRM7); experiment: biochemical; parameters: KinomeScan competition binding panel (DiscoveRx), percent of control at 1 uM; settings: read-out: Percent Control
Text: as §1

DCAMKL1 = biological target: T4, DCAMKL1 (Homo sapiens, UniProt O15075); experiment: biochemical; parameters: KinomeScan competition binding panel (DiscoveRx), percent of control at 1 uM; settings: read-out: Percent Control
T4 construct: gene DCLK1
Text: as §1

p38-beta = biological target: T5, p38-beta (Homo sapiens, UniProt Q15759); experiment: biochemical; parameters: KinomeScan competition binding panel (DiscoveRx), percent of control at 1 uM; settings: read-out: Percent Control
T5 construct: gene MAPK11
Text: as §1

PIK3CA(Q546K) = PIK3CA(Q546K) (Homo sapiens, UniProt P42336, Q546K); experiment: biochemical; parameters: KinomeScan competition binding panel (DiscoveRx), percent of control at 1 uM; settings: read-out: Percent Control
Text: as §1

BMX = BMX (Homo sapiens, UniProt P51813); experiment: biochemical; parameters: KinomeScan competition binding panel (DiscoveRx), percent of control at 1 uM; settings: read-out: Percent Control
Text: as §1

EPHB3 = EPHB3 (Homo sapiens, UniProt P54753); experiment: biochemical; parameters: KinomeScan competition binding panel (DiscoveRx), percent of control at 1 uM; settings: read-out: Percent Control
Text: as §1

CDK4-cyclinD3 = biological target: T6, CDK4-cyclinD3 (Homo sapiens, UniProt P11802); experiment: biochemical; parameters: KinomeScan competition binding panel (DiscoveRx), percent of control at 1 uM; settings: read-out: Percent Control
T6 construct: cyclinD3
Text: as §1

IRAK1 = IRAK1 (Homo sapiens, UniProt P51617); experiment: biochemical; parameters: KinomeScan competition binding panel (DiscoveRx), percent of control at 1 uM; settings: read-out: Percent Control
Text: as §1

[2] = biological target: T7, ABL1(F317I)-nonphosphorylated (Homo sapiens, UniProt P00519, F317I); experiment: biochemical; parameters: KinomeScan competition binding panel (DiscoveRx), percent of control at 1 uM; settings: read-out: Percent Control
T7 construct: nonphosphorylated
Text: as §1

T7 sequence (P00519 whole entry F317I): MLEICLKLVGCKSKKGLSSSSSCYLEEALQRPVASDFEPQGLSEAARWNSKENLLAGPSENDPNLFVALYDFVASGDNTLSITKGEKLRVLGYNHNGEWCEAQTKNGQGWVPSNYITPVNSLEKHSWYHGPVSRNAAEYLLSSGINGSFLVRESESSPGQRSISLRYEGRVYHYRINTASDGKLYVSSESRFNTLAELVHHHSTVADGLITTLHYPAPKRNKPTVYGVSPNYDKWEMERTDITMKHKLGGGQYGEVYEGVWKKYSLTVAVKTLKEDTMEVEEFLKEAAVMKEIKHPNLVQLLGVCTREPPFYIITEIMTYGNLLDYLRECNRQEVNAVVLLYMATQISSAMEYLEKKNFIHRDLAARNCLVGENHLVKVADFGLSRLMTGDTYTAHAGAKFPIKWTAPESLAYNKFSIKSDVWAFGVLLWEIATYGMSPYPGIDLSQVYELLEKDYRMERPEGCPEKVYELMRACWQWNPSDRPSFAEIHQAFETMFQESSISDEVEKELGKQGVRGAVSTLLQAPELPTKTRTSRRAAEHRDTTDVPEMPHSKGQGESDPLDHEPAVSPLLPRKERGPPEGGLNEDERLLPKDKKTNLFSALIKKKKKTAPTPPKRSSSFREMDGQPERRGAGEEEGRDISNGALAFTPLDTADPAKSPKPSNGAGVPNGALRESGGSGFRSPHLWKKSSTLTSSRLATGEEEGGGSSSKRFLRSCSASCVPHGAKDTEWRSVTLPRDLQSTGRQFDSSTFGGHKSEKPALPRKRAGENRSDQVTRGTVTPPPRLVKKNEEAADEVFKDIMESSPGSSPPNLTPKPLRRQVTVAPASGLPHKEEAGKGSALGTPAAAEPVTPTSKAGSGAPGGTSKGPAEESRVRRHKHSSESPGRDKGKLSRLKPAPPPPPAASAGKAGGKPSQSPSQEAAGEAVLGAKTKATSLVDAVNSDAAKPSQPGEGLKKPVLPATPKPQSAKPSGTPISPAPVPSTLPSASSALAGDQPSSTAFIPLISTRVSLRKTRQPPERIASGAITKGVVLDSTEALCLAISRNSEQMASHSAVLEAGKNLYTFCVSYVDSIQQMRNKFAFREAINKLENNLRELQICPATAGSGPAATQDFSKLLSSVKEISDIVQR
Chain of LATS2 (Q9NRM7 whole entry): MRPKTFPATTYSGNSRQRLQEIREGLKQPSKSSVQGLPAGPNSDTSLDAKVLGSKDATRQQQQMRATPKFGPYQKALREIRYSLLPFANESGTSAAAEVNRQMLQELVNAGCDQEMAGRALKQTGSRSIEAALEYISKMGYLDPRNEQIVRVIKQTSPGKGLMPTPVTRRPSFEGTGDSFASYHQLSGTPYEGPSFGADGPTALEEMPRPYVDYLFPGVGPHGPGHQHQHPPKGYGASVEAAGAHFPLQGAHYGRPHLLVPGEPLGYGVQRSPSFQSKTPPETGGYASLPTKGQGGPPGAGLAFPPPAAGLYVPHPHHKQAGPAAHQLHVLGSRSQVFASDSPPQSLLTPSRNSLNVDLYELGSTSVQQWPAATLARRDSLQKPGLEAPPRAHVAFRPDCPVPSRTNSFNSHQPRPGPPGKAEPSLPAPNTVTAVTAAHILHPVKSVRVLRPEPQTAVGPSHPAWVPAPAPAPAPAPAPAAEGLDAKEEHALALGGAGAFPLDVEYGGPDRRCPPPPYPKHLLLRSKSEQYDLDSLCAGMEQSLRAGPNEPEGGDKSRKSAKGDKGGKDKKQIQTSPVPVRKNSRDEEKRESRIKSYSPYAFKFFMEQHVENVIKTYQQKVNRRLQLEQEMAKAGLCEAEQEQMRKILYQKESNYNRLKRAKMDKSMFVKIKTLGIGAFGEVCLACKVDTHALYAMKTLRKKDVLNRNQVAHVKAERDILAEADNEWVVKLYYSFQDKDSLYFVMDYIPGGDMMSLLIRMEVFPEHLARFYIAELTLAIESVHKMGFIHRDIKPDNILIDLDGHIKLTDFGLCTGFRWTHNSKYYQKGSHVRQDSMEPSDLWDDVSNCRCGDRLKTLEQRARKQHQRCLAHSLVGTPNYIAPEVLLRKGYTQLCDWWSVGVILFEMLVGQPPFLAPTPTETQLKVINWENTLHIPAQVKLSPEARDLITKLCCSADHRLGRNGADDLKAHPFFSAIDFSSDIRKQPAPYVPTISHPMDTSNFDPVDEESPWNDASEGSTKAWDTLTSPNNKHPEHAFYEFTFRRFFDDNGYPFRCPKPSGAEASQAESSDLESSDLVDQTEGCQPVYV
Chain of PKNB(M.tuberculosis) (P9WI81 whole entry): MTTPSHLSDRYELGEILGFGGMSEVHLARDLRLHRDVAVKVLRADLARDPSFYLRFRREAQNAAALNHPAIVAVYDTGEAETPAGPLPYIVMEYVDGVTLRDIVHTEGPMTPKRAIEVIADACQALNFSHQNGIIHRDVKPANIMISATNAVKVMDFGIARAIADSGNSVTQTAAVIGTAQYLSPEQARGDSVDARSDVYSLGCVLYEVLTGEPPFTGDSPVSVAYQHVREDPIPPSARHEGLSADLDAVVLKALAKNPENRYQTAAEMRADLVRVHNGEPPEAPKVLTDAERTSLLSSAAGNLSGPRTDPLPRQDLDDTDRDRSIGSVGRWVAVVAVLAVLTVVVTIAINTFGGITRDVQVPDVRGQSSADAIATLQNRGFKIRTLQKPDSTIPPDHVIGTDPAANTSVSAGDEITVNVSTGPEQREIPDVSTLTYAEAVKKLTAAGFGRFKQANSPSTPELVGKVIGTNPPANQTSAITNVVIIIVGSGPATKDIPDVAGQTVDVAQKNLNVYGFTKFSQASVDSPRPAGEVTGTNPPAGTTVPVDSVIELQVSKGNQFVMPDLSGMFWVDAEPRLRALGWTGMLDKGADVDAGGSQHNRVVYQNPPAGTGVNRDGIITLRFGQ
Chain of KIT(V559D,V654A) (P10721 whole entry V559D/V654A): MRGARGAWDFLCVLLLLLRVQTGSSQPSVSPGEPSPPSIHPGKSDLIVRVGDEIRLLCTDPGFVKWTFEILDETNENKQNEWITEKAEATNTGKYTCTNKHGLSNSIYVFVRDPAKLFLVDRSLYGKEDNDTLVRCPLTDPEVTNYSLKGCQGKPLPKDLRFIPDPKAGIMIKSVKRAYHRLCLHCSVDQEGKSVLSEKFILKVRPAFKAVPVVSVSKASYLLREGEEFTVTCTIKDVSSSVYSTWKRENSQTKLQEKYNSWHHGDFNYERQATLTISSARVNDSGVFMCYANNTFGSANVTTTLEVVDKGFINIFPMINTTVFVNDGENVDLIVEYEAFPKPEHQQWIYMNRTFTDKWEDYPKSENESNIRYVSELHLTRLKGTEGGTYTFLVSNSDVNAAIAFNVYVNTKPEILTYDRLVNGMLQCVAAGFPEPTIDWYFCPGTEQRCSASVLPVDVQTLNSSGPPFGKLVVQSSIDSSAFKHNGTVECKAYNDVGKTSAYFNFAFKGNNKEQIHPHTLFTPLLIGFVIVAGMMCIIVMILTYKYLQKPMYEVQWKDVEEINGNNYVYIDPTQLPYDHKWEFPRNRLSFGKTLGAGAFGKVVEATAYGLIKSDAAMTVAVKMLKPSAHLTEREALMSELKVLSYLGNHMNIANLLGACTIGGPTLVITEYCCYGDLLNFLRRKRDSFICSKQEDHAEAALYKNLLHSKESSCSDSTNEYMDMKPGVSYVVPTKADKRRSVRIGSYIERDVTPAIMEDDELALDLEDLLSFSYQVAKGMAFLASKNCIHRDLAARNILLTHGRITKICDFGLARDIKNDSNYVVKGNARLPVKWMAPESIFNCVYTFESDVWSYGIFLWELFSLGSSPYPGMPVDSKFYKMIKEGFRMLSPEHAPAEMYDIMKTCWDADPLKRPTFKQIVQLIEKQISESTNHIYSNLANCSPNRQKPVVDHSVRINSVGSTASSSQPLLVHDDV
Chain of EPHB3 (P54753 whole entry): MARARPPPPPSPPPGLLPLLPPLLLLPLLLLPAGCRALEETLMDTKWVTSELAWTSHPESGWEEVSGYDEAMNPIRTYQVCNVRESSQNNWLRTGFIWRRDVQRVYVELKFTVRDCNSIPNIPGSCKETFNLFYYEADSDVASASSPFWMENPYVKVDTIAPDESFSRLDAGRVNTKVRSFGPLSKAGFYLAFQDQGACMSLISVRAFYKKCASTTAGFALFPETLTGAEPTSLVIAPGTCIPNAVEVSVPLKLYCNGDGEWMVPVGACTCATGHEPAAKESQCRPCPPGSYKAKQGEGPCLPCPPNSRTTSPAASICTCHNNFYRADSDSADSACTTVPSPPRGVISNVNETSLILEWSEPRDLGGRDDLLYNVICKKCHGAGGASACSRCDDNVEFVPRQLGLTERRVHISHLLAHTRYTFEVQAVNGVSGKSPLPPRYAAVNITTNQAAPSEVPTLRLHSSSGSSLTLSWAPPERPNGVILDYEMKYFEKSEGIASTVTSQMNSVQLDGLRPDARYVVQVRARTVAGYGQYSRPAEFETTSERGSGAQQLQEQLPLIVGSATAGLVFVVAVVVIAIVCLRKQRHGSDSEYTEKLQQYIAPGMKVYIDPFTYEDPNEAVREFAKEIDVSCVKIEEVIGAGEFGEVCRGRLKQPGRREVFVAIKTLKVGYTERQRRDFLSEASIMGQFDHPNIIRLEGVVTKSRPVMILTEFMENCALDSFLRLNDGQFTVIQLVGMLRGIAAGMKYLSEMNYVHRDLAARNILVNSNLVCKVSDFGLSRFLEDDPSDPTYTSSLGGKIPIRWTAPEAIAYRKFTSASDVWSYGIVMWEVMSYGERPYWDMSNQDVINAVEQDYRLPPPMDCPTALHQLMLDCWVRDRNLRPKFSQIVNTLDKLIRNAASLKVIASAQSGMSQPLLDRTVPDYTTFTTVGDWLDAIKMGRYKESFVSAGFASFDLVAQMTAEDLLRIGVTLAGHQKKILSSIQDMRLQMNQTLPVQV

## C=CC(=O)Nc1cc(-n2c(=O)ccc3cnc4ccc(-n5cccn5)cc4c32)ccc1C [CHMFL-BTK-11]
PKNB(M.tuberculosis)
  remaining binding at 1 µM: 69%
[1]
  IC50: 26.8 nM
KIT(V559D,V654A)
  remaining binding at 1 µM: 100%
PKN1
  remaining binding at 1 µM: 100%
PIK3CB
  remaining binding at 1 µM: 100%
FLT3(D835Y)
  remaining binding at 1 µM: 100%
PKN2
  remaining binding at 1 µM: 100%
AKT1
  remaining binding at 1 µM: 96%
PIK3CA(C420R)
  remaining binding at 1 µM: 74%
DRAK2
  remaining binding at 1 µM: 95%
MARK1
  remaining binding at 1 µM: 82%
NEK9
  remaining binding at 1 µM: 100%
PHKG2
  remaining binding at 1 µM: 100%
ERK4
  remaining binding at 1 µM: 96%
RIOK1
  remaining binding at 1 µM: 66%
MAP3K2
  remaining binding at 1 µM: 99%
LATS2
  remaining binding at 1 µM: 100%
DCAMKL1
  remaining binding at 1 µM: 91%
p38-beta
  remaining binding at 1 µM: 100%
PIK3CA(Q546K)
  remaining binding at 1 µM: 97%
BMX
  remaining binding at 1 µM: 23%
EPHB3
  remaining binding at 1 µM: 97%
CDK4-cyclinD3
  remaining binding at 1 µM: 100%
IRAK1
  remaining binding at 1 µM: 87%
[2]
  remaining binding at 1 µM: 100%
